Laboratory results published in publication PMC7676912, “Guanosine Tetraphosphate Has a Similar Affinity for Each of Its Two Binding Sites on Escherichia coli RNA Polymerase” (Frontiers in Microbiology, 2020).

Key:
Experiment in all cases: DRaCALA, one-site saturation fit
Format in all cases: binding
[1] = molecular target: T1, wild-type RNAP (without DksA; Site 1 only) (Escherichia coli, UniProt P0A800+P0A8T7, P0A800:DEL2-5)
T1 construct: gene rpoZ; recombinant core RNAP, alpha, beta, beta' from one plasmid and omega from a second plasmid, omega saturating; with DNA-directed RNA polymerase subunit alpha; DNA-directed RNA polymerase subunit beta

[2] = molecular target: T2, RNAPΔω (no DksA; lacking Sites 1 and 2) (Escherichia coli, UniProt P0A8T7); settings: read-out: Kd,app
T2 construct: gene rpoC; RNAP lacking omega, purified from a ΔrpoZ strain, no DksA added; with DNA-directed RNA polymerase subunit alpha; DNA-directed RNA polymerase subunit beta

[3] = molecular target: T3, wild-type RNAP (without DksA; Site 1 only) (Escherichia coli, UniProt P0A800+P0A8T7); settings: read-out: Kd,app
T3 construct: gene rpoZ; recombinant core RNAP, alpha, beta, beta' from one plasmid and omega from a second plasmid, omega saturating; with DNA-directed RNA polymerase subunit alpha; DNA-directed RNA polymerase subunit beta

[4] = molecular target: T4, wild-type RNAP with DksA (Sites 1 and 2) (Escherichia coli, UniProt P0A800+P0A8T7+P0ABS1, P0ABS1:K98A)
T4 construct: gene rpoZ; recombinant core RNAP saturated with omega plus saturating purified DksA; with DNA-directed RNA polymerase subunit alpha; DNA-directed RNA polymerase subunit beta

[5] = molecular target: T5, wild-type RNAP-GreB complex (Escherichia coli, UniProt P0A800+P0A8T7); settings: read-out: Kd,app
T5 construct: gene rpoZ; recombinant core RNAP saturated with omega plus purified GreB; ppGpp at Site 1; with DNA-directed RNA polymerase subunit alpha; DNA-directed RNA polymerase subunit beta; Transcription elongation factor GreB

[6] = molecular target: T6, wild-type RNAP with DksA (Sites 1 and 2) (Escherichia coli, UniProt P0A800+P0A8T7+P0ABS1, P0ABS1:R129A)
T6 construct: gene rpoZ; recombinant core RNAP saturated with omega plus saturating purified DksA; with DNA-directed RNA polymerase subunit alpha; DNA-directed RNA polymerase subunit beta

[7] = molecular target: T7, wild-type RNAP-TraR complex (Escherichia coli, UniProt P0A800+P0A8T7); settings: Site 1; TraR present; labelled compound [32P]-ppGpp; unreliable (printed 'at least'; curve did not plateau); non-equilibrium assay
T7 construct: gene rpoZ; recombinant core RNAP saturated with omega plus purified TraR (encoded by F element); ppGpp at Site 1; with DNA-directed RNA polymerase subunit alpha; DNA-directed RNA polymerase subunit beta; Protein TraR

[8] = molecular target: T8, RNAPΔω with DksA (Site 2 only) (Escherichia coli, UniProt P0A8T7+P0ABS1); settings: read-out: Kd,app
T8 construct: gene rpoC; with DNA-directed RNA polymerase subunit alpha; DNA-directed RNA polymerase subunit beta

[9] = molecular target: T9, wild-type RNAP with DksA (Sites 1 and 2) (Escherichia coli, UniProt P0A800+P0A8T7+P0ABS1); settings: read-out: Kd,app
T9 construct: gene rpoZ; recombinant core RNAP saturated with omega plus saturating purified DksA; with DNA-directed RNA polymerase subunit alpha; DNA-directed RNA polymerase subunit beta

In the case of `Nc1nc2c(ncn2[C@@H]2O[C@H](COP(=O)(O)OP(=O)(O)O)[C@@H](OP(=O)(O)OP(=O)(O)O)[C@H]2O)c(=O)[nH]1` [ppGpp, guanosine 5'-diphosphate 3'-diphosphate], the Kd [1] is reported as > 100 µM, the Kd [2] is reported as > 100 µM and the Kd [3] is reported as 6.1 ± 1.3 µM. For the same molecule, the Kd [4] was ~1.3 µM, the Kd [5] was ~6.4 µM and the Kd [6] was ~1.8 µM. For the same molecule, the “Kd,app” value [7] was > 4.2 ± 0.6 µM, the Kd [8] was 7.9 ± 1.3 µM and the Kd [9] was 3.3 ± 1.2 µM.
